Consider 3 compounds from ChEMBL document CHEMBL5053469, “Heterocyclic GTP Cyclohydrolase 1 Inhibitors For the Treatment of Pain” (2012).

Assay [1] can be described thus: Inhibition of rat aortic smooth muscle cell GCH1 expressed in Escherichia coli assessed as reduction in 7,8-dihydroneoptrein 3'-triphosphate formation using GTP as substrate incubated for 1 hr by LC/MS assay.
Assay [2] is described as follows: Inhibition of recombinant rat GCH1 assessed as reduction in 7,8-dihydroneoptrein 3'-triphosphate formation using GTP as substrate incubated for 15 mins by HPLC and fluorescence detection assay.

For the compound `Nc1nc(O)c2nc(SCC(=O)Nc3ccc(S(=O)(=O)N4CCCCCC4)cc3)[nH]c2n1`, the half-inhibitory concentration (IC50) in assay [1] was determined as 127 µM.
Turning to `Nc1nc2[nH]c(S)nc2c(=O)[nH]1`, the IC50 in assay [2] is 24 µM.
With `CC1CCCCC1NC(=O)CSc1nc2c(O)nc(N)nc2[nH]1` (stereo not drawn), the IC50 in assay [1] amounted to 89 µM.

Broadly, the IC50 is the midpoint of a concentration-inhibition curve.
